“Also recorded” adds a separate entry of the source. Like-named read-outs stand apart in the source and are kept apart here.
Key:
E8.0 embryos = assay: Whole embryo culture, primary lung bud and oesophagotracheal fold formation; assay type: cell-based, mouse
Description: Embryos were collected at E8.0 (i.e. 36 hours prior to the formation of primary lung buds and tracheal diverticulum; Kaufman, M. H., The Atlas of Mouse Development, London Academic Press (1992)), and cultured for 48 hours (i.e. until the equivalent of E9.5 in vivo) either in the presence of the pan-RAR antagonist, Compound VIII (Chazaud, C., et al., Development 126:2589-2596 (1999); Wendling, O., et al., Development 127:1553-62 (2000), or in the presence of the retinoid vehicle (i.e. ethanol alone). Treatment with 10^−6 M Compound VIII, inhibited primary lung bud outgrowth (FIGS. 1A-1D; l and r) and caused a failure of oesophagotracheal fold formation (arrowheads in FIG. 1F compare with FIG. 1G). […] Therefore, a block in RA signal transduction before and at the onset of lung bud appearance inhibits the formation of the respiratory system from the primitive foregut.
Whole embryos from CD 1×CD 1 crosses were collected at E8.0, staged and cultured according to previously described methods in the presence of retinoids or ethanol vehicle alone for 48 hours (New D.A.T., Postimplantation Mammalian Embryos: A Practical Approach, Cop, A. J. and Cockroft, D. L., eds., Oxford University Press (1990); Wendling, O., et al., Development 127:1553-62 (2000)). For morphological assessment, serial transverse histological sections were stained with hematoxylin and eosin.

E11.75 wild type lungs = assay: Lung explant culture, average terminal bud number (ATBN), wild type; assay type: cell-based, mouse; conditions: for average terminal bud number (ATBN): 4 days in culture; for retinoid-induced changes in ATBN: 10^−6 M RA and 10^−6 M Compound VIII simultaneously added
Description: Lung explants from E11.75 or E12.5 embryos were cultured for 4 days, unless otherwise indicated. Control explants were cultured in the presence of the retinoid vehicle alone.
The mouse lines carrying the RARβ, RARγ and CRBPI null mutations and their genotyping protocols have been described previously (Lohnes, D., et al., Cell 73:643-658 (1993); Ghyselinck, N. B., et al., Int. J. Dev. Biol. 41:425-447 (1997); Ghyselinck, N. B., et al., EMBO J. 18:4903-4914 (1999)). The morning of appearance of the vaginal plug was designated as E0.5. For explant culture, E11.75 and E12.5 lungs from RARβ^+/−×RARβ^+/−, RARγ^+/−×RARγ^+/−, CRBPI^−/−×CRBPI^−/− and wildtype crosses were dissected in PBS and incubated in BGJB medium (Fitton-Jackson modified, GibcoBRL), 5% delipidated fetal calf serum (FCS, GibcoBRL) and […] vitamin C (Sigma) on millipore filters (GibcoBRL), at 37° C., in the presence of 5% CO2. Half of the media, supplemented with fresh retinoids (see below), was changed daily. The cultured lung buds reproducibly grew and branched for at least seven days in culture (data not shown). Average terminal bud number (ATBN) was calculated after counting every bud in each explant at 0, 24, 48, 72 and 96 hours after the commencement of culture. Significant differences in ATBN between different groups were determined by ANOVA and Newman-Keuls multiple comparison tests according to previously described methods (Motulsky, H., Intuitive Biostatistics, New York: Oxford University Press (1995)). The synthetic retinoid Compound VIII [a specific pan RAR (α, β and γ) antagonist (Bristol-Myers-Squibb, N.J.); Chazaud, C., et al., Development 126:2589-2596 (1999); Wendling, O., et al., Development 127:1553-62 (2000)] and RA (all-trans retinoic acid) (Sigma) were diluted in ethanol and added to the culture medium at a final ethanol concentration of 0.1% at the beginning of culture and every subsequent 24 hours.

RARβ transcripts = assay: RARβ expression in lung explants (whole-mount ISH, RNAse protection); assay type: cell-based, mouse; conditions: for retinoid-induced changes in RARβ expression: 10^−6 M RA and 10^−6 M Compound VIII simultaneously added; for RARβ expression: 10^−6 M, E11.75 lung explants
Description: FIG. 3A. Whole-mount ISH for detection of RARβ transcripts following 24 hours of exposure of E11.75 lung explants to either retinoid vehicle alone, 10^−6 M RA or 10^−6 M Compound VIII.
FIG. 3B. RNAse protection analyses of RARβ 1/3/4, RARβ2 and vimentin transcripts in lungs explanted at E11.75 and cultured for four days in the presence of retinoids or ethanol; the explants were analyzed four hours after the last addition of the retinoids and/or ethanol to the culture media (2 μg RNA per track; exposure times, four to 24 hours).
The expression pattern of RARβ transcripts in E11.75 lung explants cultured for 24 hours in the absence of retinoids was similar to that observed in vivo at E13.5 (FIG. 3A). […] It is also noteworthy that only limited changes in the expression of vimentin, a specific mesenchymal marker, occurred following retinoid treatment (FIG. 3B). […] In order to investigate this possibility, we compared the effects of 10^−6 M RA upon ATBN in explants from RARβ null embryos (Ghyselinck, N. B., et al., Int. J. Dev. Biol. 41:425-447 (1997)), heterozygotesi and wild type littermates. […] The explants were then treated for 48 hours with 10^−6 M RA (FIG. 3C).
Total RNA preparation, RNAse protection assays and in situ hybridizations were performed as previously described (Chirgwin, J. M., et al., Biochemistry 18:5294-5299 (1979); Décimo, D., et al., “In situ hybridization of nucleic acid probes to cellular RNA,” in Gene Probes 2, A Practical Approach, Hames, B. D. and Higgins, S., eds.: Oxford University Press (1995) pp. 183-210; Mollard, R. and Dziadek, M., Int. J. Dev. Biol. 41:655-666 (1997); Ghyselinck, N. B., et al., Int. J. Dev. Biol. 41:425-447 (1997)). CRBPI, H4, RARβ and vimentin cDNAs have been previously described (Ghyselinck, N. B., et al., Int. J. Dev. Biol. 41:425-447 (1997); Mollard, R. and Dziadek, M., Int. J. Dev. Biol. 41:655-666 (1997)).

[1] = system: E12.5 RARγ wild type (+/+), heterozygote (+/−) and null (−/−) mutant lungs; assay: ATBN in RARγ wild type, heterozygote and null lung explants; assay type: cell-based, mouse; conditions: 10^−6 M
Description: FIG. 4C. E12.5 RARγ wild type (+/+), heterozygote (+/−) and null (−/−) mutant lungs from RARγ^+/−/RARγ^+/−heterozygote crosses were cultured for 24 hours in the absence of retinoids and then for 72 hours in the presence of 10^−6M Compound VIII (seven explants per group, two individual experiments). […] Error bars represent +/− standard deviation. Scale bar=100 μm.
RARα1, RARα2 and RARγ2 transcripts are expressed ubiquitously in E13.5 lungs in vivo. […]
(§1) The mouse lines carrying the RARβ, RARγ and CRBPI null mutations and their genotyping protocols have been described previously (Lohnes, D., et al., Cell 73:643-658 (1993); Ghyselinck, N. B., et al., Int. J. Dev. Biol. 41:425-447 (1997); Ghyselinck, N. B., et al., EMBO J. 18:4903-4914 (1999)). […] Average terminal bud number (ATBN) was calculated after counting every bud in each explant at 0, 24, 48, 72 and 96 hours after the commencement of culture. Significant differences in ATBN between different groups were determined by ANOVA and Newman-Keuls multiple comparison tests according to previously described methods (Motulsky, H., Intuitive Biostatistics, New York: Oxford University Press (1995)). […]

CRBPI transcripts = assay: CRBPI expression in cultured lungs (RNAse protection); assay type: cell-based, mouse; conditions: 10^−6 M, cultured E12.5 wild type lungs
Description: FIG. 5A. RNAse protection analysis of CRBPI transcripts in E11.75 wild type lungs cultured for four days in the presence of retinoids or ethanol; the explants were analyzed four hours after the last addition of the retinoids, and/or ethanol to the culture media (2 μg RNA per track; exposure times, four to 24 hours). Six experiments per group, 10 lungs per experiment.
The lung at the pseudoglandular stage is a major site of expression of CRBPI in the embryo (Dollé, P., et al., Development 110:1133-1151 (1990)). In cultured E12.5 wild type lungs, CRBPI expression was increased in the presence of 10^−6 M RA and decreased by 10^−6 M Compound VIII (FIG. 5A). Thus, increased and decreased expression of CRBPI are correlated with retinoid-induced inhibition and stimulation of branching, respectively. To further test an involvement of CRBPI in lung morphogenesis, explants from E12.5 CRBPI null mutants (Ghyselinck, N. B., et al., EMBO J. 18:4903-4914 (1999)) were cultured in the presence of various concentrations of the pan-RAR antagonist. […]

[2] = system: E12.5 CRBPI null mutant lungs; assay: ATBN in CRBPI null mutant lung explants; assay type: cell-based, mouse
Description: FIG. 5B. ATBN in CRBPI null mutant lungs cultured for four days in the presence of either ethanol alone (control), or 10^−6 M or 10^−7 M Compound VIII. Six explants per group, three individual experiments; * p<0.01 relative to control. Error bars represent +/− standard deviation.
The lung at the pseudoglandular stage is a major site of expression of CRBPI in the embryo (Dollé, P., et al., Development 110:1133-1151 (1990)). In cultured E12.5 wild type lungs, CRBPI expression was increased in the presence of 10^−6 M RA and decreased by 10^−6 M Compound VIII (FIG. 5A). […]
as §1

[3] = system: E12.5 RARβ wild type, heterozygote (+/−) and null (−/−) mutant lungs; assay: ATBN in lung explants from RARβ null, heterozygote and wild type littermates; assay type: cell-based, mouse; conditions: 10^−6 M, 48 hours, vs RARβ+/− ethanol controls
Description: Appearance of representative E12.5 RARβ, heterozygote (+/−) and null (−/−) mutant lungs from RARβ^+/−/RARβ^+/− crosses, cultured for 24 hours in the absence of retinoids and then 48 hours in the presence of either vehicle alone or 10^−6 M RA. The accompanying histogram depicts ATBN versus treatment at 72 hours of culture; each group consists of seven explants and is representative of two individual experiments. b1=primary bronchi; b2=secondary bronchi; db=distal bud; m=mesenchyme; * p<0.01 relative to control. Error bars represent +/− standard deviation.
For explant culture, E11.75 and E12.5 lungs from RARβ^+/−×RARβ^+/−, RARγ^+/−×RARγ^+/−, CRBPI^−/−×CRBPI^−/− and wildtype crosses were dissected in PBS and incubated in BGJB medium (Fitton-Jackson modified, GibcoBRL), 5% delipidated fetal calf serum (FCS, GibcoBRL) and 180mg/ml vitamin C (Sigma) on millipore filters (GibcoBRL), at 37° C., in the presence of 5% CO2. Half of the media, supplemented with fresh retinoids (see below), was changed daily. […] Average terminal bud number (ATBN) was calculated after counting every bud in each explant at 0, 24, 48, 72 and 96 hours after the commencement of culture. Significant differences in ATBN between different groups were determined by ANOVA and Newman-Keuls multiple comparison tests according to previously described methods (Motulsky, H., Intuitive Biostatistics, New York: Oxford University Press (1995)).

pulmonary alveoli = conditions: cited from earlier work; for number of pulmonary alveoli: postnatal treatment, newborn rats
lung cultures = conditions: cited from earlier work
[4] = 10^−6 M, E8.0 embryos cultured 48 hours, vs ethanol vehicle

In the case of `CC1(C)CC=C(C#Cc2ccccc2)c2cc(/C=C/c3ccc(C(=O)O)cc3)ccc21` [Compound VIII], the oesophagotracheal fold formation (E8.0 embryos; [4]) is reported as “failure”, the “primary lung bud outgrowth” value (E8.0 embryos; [4]) is reported as “inhibited” and the “average terminal bud number (ATBN)” value (E11.75 wild type lungs; 2×10^−6 M) is reported as “significantly increased; also recorded: significant increases”. For the same molecule, the “explant size and terminal bud numbers” value (E11.75 wild type lungs; 10^−6 M) was “Increased”, the “retinoid-induced changes in ATBN” value (E11.75 wild type lungs) was “prevented” and the “RA-induced decrease in ATBN” value (E11.75 wild type lungs; 10^−6 M and 10^−7 M RA with concomitant 10^−6 M Compound VIII) was “negated”. For the same molecule, the “average terminal bud number (ATBN)” value (E11.75 wild type lungs; 10^−6 M) was “significantly increased; also recorded: significant increases”, the “average terminal bud number (ATBN)” value (E11.75 wild type lungs; 10^−7 M) was “ineffective” and the “average terminal bud number (ATBN)” value (E11.75 wild type lungs; 10^−8 M) was “ineffective”. For the same molecule, the “retinoid-induced changes in RARβ expression” value (RARβ transcripts) was “prevented”, the RARβ expression (RARβ transcripts) was “decreased RARβ expression in secondary bronchi” and the “differences in the stimulation of ATBN between RARγ genotype groups” value [1] was “No significant differences”. For the same molecule, the CRBPI expression (CRBPI transcripts) was “decreased”, the ATBN ([2]; CRBPI null lungs, 10^−7 M, four days) was “significant increase” and the “sensitivity of CRBPI null lungs relative to wild type lungs to stimulation of distal bud formation” value ([2]; CRBPI null vs wild type lungs) was “approximately 10 fold”.
For `CC1=C(/C=C/C(C)=C/C=C/C(C)=C/C(=O)O)C(C)(C)CCC1` [RA, all-trans retinoic acid], the “Compound VIII-induced defects of lung bud outgrowth and oesophagotracheal fold formation” value (E8.0 embryos; simultaneous addition of 10^−6 M Compound VIII and 10^−7 M RA, 48 hours) was “partially prevented”, the “increased explant size and terminal bud numbers of Compound VIII treated explants” value (E11.75 wild type lungs; 10^−6 M Compound VIII with concomitant 10^−6 M RA) was “reduced” and the “retinoid-induced changes in ATBN” value (E11.75 wild type lungs) was “prevented”. For the same molecule, the “average terminal bud number (ATBN)” value (E11.75 wild type lungs; 10^−6 M) was “significantly decreased; also recorded: significant decrease”, the “average terminal bud number (ATBN)” value (E11.75 wild type lungs; 10^−7 M) was “significantly decreased; also recorded: significant decrease” and the “average terminal bud number (ATBN)” value (E11.75 wild type lungs; 10^−8 M) was “ineffective”. For the same molecule, the “retinoid-induced changes in RARβ expression” value (RARβ transcripts) was “prevented”, the RARβ expression (RARβ transcripts) was “induced the expression of RARβ throughout the pulmonary tree, including the distal buds” and the ATBN ([3]; RARβ null explants) was “no significant difference”. For the same molecule, the ATBN ([3]; RARβ+/− explants) was “significant reduction”, the ATBN ([3]; wild type explants) was “significant reduction” and the CRBPI expression (CRBPI transcripts) was “increased”. The alveolar number (pulmonary alveoli; animal models of emphysema) was “restores”, the “number of pulmonary alveoli” value (pulmonary alveoli) was “increases” and the “number of pulmonary alveoli” value (pulmonary alveoli; listed as retinoic acid) was “increase”. The branching morphogenesis (lung cultures) was “inhibitory effect”.
